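Assay format: 96-well plates, 48-hour exposure. GI50 marks 50% less growth.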 Active and inactive are the calls of the source. No stated cut-off is given here; in the data, active = GI50 up to about 1.1 µM and inactive = higher.
Experiments:
Test in all cases: NCI tumour cell line growth inhibition, 48 h
[1] = test system: ACHN
[2] = test system: HCT-116
[3] = test system: SNB-75
[4] = test system: UO-31
[5] = test system: SK-MEL-5
[6] = test system: COLO 205
[7] = test system: NCI-H23
[8] = test system: 786-0
[9] = test system: KM12
[10] = test system: UACC-62
[11] = test system: OVCAR-3
[12] = test system: A498
[13] = test system: HCC 2998
[14] = test system: NCI/ADR-RES
[15] = test system: SW-620
[16] = test system: OVCAR-5
[17] = test system: IGROV-1
[18] = test system: CCRF-CEM
[19] = test system: HCT-15
[20] = test system: DU-145
[21] = test system: UACC-257
[22] = test system: EKVX
[23] = test system: SK-OV-3
[24] = test system: T47D
[25] = test system: BT-549
[26] = test system: NCI-H460
[27] = test system: OVCAR-4
[28] = test system: HL-60
[29] = test system: A549
[30] = test system: SF-539
[31] = test system: K562
[32] = test system: SK-MEL-2
[33] = test system: SR
[34] = test system: OVCAR-8
[35] = test system: HT-29
[36] = test system: SF-295
[37] = test system: NCI-H522
[38] = test system: SN12C
[39] = test system: SF-268
[40] = test system: M14
[41] = test system: MDA-N
[42] = test system: CAKI-1
[43] = test system: Malme-3M
[44] = test system: U-251
[45] = test system: NCI-H226
[46] = test system: HOP-92
[47] = test system: RXF 393
[48] = test system: MOLT-4
[49] = test system: MDA-MB-435
[50] = test system: SNB-19
[51] = test system: HOP-62
[52] = test system: SK-MEL-28
[53] = test system: LOX IMVI
[54] = test system: RPMI-8226
[55] = test system: TK-10
[56] = test system: Hs-578T
[57] = test system: PC-3
[58] = test system: MDA-MB-231

Question: `COc1ccc(/C=N/c2ccc(-c3nc4ccccc4s3)cc2)cc1OC` was tested. Which GI50 [1] did it give?
Answer: 22.5 µM (inactive)

Question: What about the GI50 [2] of the same compound?
Answer: 29.1 µM (inactive)

Question: And the GI50 [3]?
Answer: 25.7 µM (inactive)

Question: What about the GI50 [4] of the same compound?
Answer: 27.5 µM (inactive)

Question: What about the GI50 [5] of the same compound?
Answer: 16.1 µM (inactive)

Question: And the GI50 [6]?
Answer: 19.3 µM (inactive)

Question: And the GI50 [7]?
Answer: 27.1 µM (inactive)

Question: And the GI50 [8]?
Answer: 19 µM (inactive)

Question: What about the GI50 [9] of the same compound?
Answer: 26.4 µM (inactive)

Question: And the GI50 [10]?
Answer: 20 µM (inactive)

Question: And the GI50 [11]?
Answer: 13.4 µM (inactive)

Question: What about the GI50 [12] of the same compound?
Answer: 18.8 µM (inactive)

Question: And the GI50 [13]?
Answer: 20.2 µM (inactive)

Question: And the GI50 [14]?
Answer: 27.5 µM (inactive)

Question: What about the GI50 [15] of the same compound?
Answer: 34.8 µM (inactive)

Question: What about the GI50 [16] of the same compound?
Answer: 36.5 µM (inactive)

Question: What about the GI50 [17] of the same compound?
Answer: 25.1 µM (inactive)

Question: What about the GI50 [18] of the same compound?
Answer: 12.8 µM (inactive)

Question: And the GI50 [19]?
Answer: 31.8 µM

Question: And the GI50 [20]?
Answer: 38.3 µM (inactive)

Question: What about the GI50 [21] of the same compound?
Answer: 22.7 µM (inactive)

Question: What about the GI50 [22] of the same compound?
Answer: 32.9 µM (inactive)

Question: And the GI50 [23]?
Answer: 31 µM (inactive)

Question: And the GI50 [24]?
Answer: 17.4 µM (inactive)

Question: And the GI50 [25]?
Answer: 30.5 µM (inactive)

Question: And the GI50 [26]?
Answer: 21.8 µM (inactive)

Question: And the GI50 [27]?
Answer: 34.3 µM (inactive)

Question: What about the GI50 [28] of the same compound?
Answer: 1.3 µM (inactive)

Question: And the GI50 [29]?
Answer: 36.5 µM (inactive)

Question: What about the GI50 [30] of the same compound?
Answer: 34.8 µM (inactive)

Question: And the GI50 [31]?
Answer: 27.4 µM (inactive)

Question: What about the GI50 [32] of the same compound?
Answer: 22 µM (inactive)

Question: And the GI50 [33]?
Answer: 27.8 µM (inactive)

Question: And the GI50 [34]?
Answer: 36.2 µM (inactive)

Question: What about the GI50 [35] of the same compound?
Answer: 30.7 µM (inactive)

Question: What about the GI50 [36] of the same compound?
Answer: 25.4 µM (inactive)

Question: What about the GI50 [37] of the same compound?
Answer: 16.7 µM (inactive)

Question: And the GI50 [38]?
Answer: 25.7 µM (inactive)

Question: And the GI50 [39]?
Answer: 28 µM (inactive)

Question: And the GI50 [40]?
Answer: 35.7 µM (inactive)

Question: And the GI50 [41]?
Answer: 30.9 µM (inactive)

Question: What about the GI50 [42] of the same compound?
Answer: 31.3 µM (inactive)

Question: And the GI50 [43]?
Answer: 30 µM (inactive)

Question: And the GI50 [44]?
Answer: 30.3 µM (inactive)

Question: What about the GI50 [45] of the same compound?
Answer: 30.1 µM (inactive)

Question: And the GI50 [46]?
Answer: 22.4 µM (inactive)

Question: And the GI50 [47]?
Answer: 20.3 µM (inactive)

Question: What about the GI50 [48] of the same compound?
Answer: 17.9 µM (inactive)

Question: And the GI50 [49]?
Answer: 33.3 µM (inactive)

Question: What about the GI50 [50] of the same compound?
Answer: 54.1 µM (inactive)

Question: What about the GI50 [51] of the same compound?
Answer: 10.9 µM (inactive)

Question: And the GI50 [52]?
Answer: 38 µM (inactive)

Question: And the GI50 [53]?
Answer: 21.8 µM (inactive)

Question: And the GI50 [54]?
Answer: 21.7 µM (inactive)

Question: What about the GI50 [55] of the same compound?
Answer: 28.6 µM (inactive)

Question: What about the GI50 [56] of the same compound?
Answer: 24.5 µM (inactive)

Question: What about the GI50 [57] of the same compound?
Answer: 22.6 µM (inactive)

Question: Which results are given for `CN1C2CCC1CN(CCOC(c1ccc(F)cc1)c1ccc(F)cc1)C2`?
Answer: GI50 [1]: 40.6 µM (inactive); GI50 [2]: 17.8 µM (inactive); GI50 [3]: 26.5 µM (inactive); GI50 [4]: 33.2 µM (inactive); GI50 [5]: 14.4 µM (inactive); GI50 [6]: 15.3 µM (inactive); GI50 [7]: 69.7 µM (inactive); GI50 [8]: 19.6 µM (inactive); GI50 [9]: 21.8 µM (inactive); GI50 [11]: 47.1 µM (inactive); GI50 [12]: 24.8 µM (inactive); GI50 [14]: 35.4 µM (inactive); GI50 [15]: 23.6 µM (inactive); GI50 [16]: 56.6 µM (inactive); GI50 [17]: 36.1 µM (inactive); GI50 [18]: 36.7 µM (inactive); GI50 [19]: 32.9 µM; GI50 [20]: 57.5 µM (inactive); GI50 [21]: 19.1 µM (inactive); GI50 [22]: 23.8 µM (inactive); GI50 [23]: 42.3 µM (inactive); GI50 [24]: 24.3 µM (inactive); GI50 [25]: 43.4 µM (inactive); GI50 [26]: 20.9 µM (inactive); GI50 [27]: 43.8 µM (inactive); GI50 [28]: 12.6 µM (inactive); GI50 [29]: 65 µM (inactive); GI50 [30]: 16.6 µM (inactive); GI50 [31]: 20 µM (inactive); GI50 [32]: 23.8 µM (inactive); GI50 [34]: 32.4 µM (inactive); GI50 [35]: 19.5 µM (inactive); GI50 [36]: 19.1 µM (inactive); GI50 [37]: 43.6 µM (inactive); GI50 [38]: 47.9 µM (inactive); GI50 [39]: 46.7 µM (inactive); GI50 [40]: 20.1 µM (inactive); GI50 [41]: 36 µM (inactive); GI50 [42]: 45.8 µM (inactive); GI50 [43]: 17.9 µM (inactive); GI50 [44]: 26.1 µM (inactive); GI50 [45]: 32.3 µM (inactive); GI50 [46]: 21.4 µM (inactive); GI50 [47]: 16.5 µM (inactive); GI50 [48]: 23.6 µM (inactive); GI50 [49]: 23.4 µM (inactive); GI50 [50]: > 100 µM (inactive); GI50 [51]: 21.4 µM (inactive); GI50 [52]: 15.5 µM (inactive); GI50 [58]: 22.9 µM (inactive); GI50 [53]: 19.8 µM (inactive); GI50 [54]: 23.9 µM (inactive); GI50 [55]: > 100 µM (inactive); GI50 [56]: 42.7 µM (inactive); GI50 [57]: 28.6 µM (inactive)
